# Measured values published in patent US20060252707A1, “Pharmaceutical composition for the treatment and/or the prevention of atherosclerosis from infectious origin” (UNIVERSITE DE LIEGE, priority 2003, published 2006).
# Assays:
# Format in all cases: cell-based, human
# [1] = tested on: THP-1 cells conditioned with Escherichia Coli endotoxin (LPS); assay: Oxidant activity (ethylene production) of THP-1 cells conditioned with Escherichia Coli endotoxin (LPS), then stimulated by PMA; conditions: for Ethylene: FIG. 9 part 2, % of THP-1 + LPS, PMA 10^−7 M
# Procedure: FIG. 9 represents the effects of hydrocortisone (HCT) on the oxidant activity of THP-1 cells conditioned either with Chlamydia pneumoniae (part 1; n=13) or with Escherichia Coli endotoxin (LPS) (part 2), and then stimuled by PMA 10^−7 M. Ethylene is expressed in % of the value measured for THP-1 cells incubated with Chlamydia (column 2 for part 1), or incubated with LPS (column 1 for par 2).
# (§1) After incubation with C. pneumoniae, the cells are washed and detached from the wells; they are put in sterile vials and an oxidable substrate, α-keto-methyl butyric acid (KMB) at 10^−3 M, is added. The vial is sealed and the following reagents are added by needle puncture. through the septum: 200 U horseradish peroxidase (HRP) and 10^−7 M phorbol myristate acetate (PMA).
# (§2) PMA is a monocyte activator, enhancing the superoxide anion production by these cells. Superoxide anion dismutates into hydrogen peroxide (H2O2), which is used by HRP to form more oxidant species, able to oxidize KMB, releasing ethylene. After 3 hours of incubation at 37° C, ethylene, which has accumulated in the gaseous phase of the sealed vial is measured by gas liquid chromatography, on a Porapak T column (TM) equipped with flame ionisation detector. These assays can be made with the prior addition of a reagent able to inhibit or to stimulate the monocytes, the reagent being added, either at pre-incubation (at the same time as the Chlamydia EB), or at the moment of PMA activation.
# Two glucocorticoids were tested: hydrocortisone and methylprednisolone. […] On the contrary, HCT is an inhibitor on the oxidation rate when the cells are conditioned with endotoxins (LPS) of Escherichia coli (FIG. 9 part 2, columns 2, 3 and 4) (Ethylene values are expressed in % of the control cells=THP-1 cells stimulated by PMA 10^−7 M after pre-incubation with Chlamydia (part 1, column 2) or LPS ([…]
# p22^phox = assay: Gene expression (PCR) of NADPH-oxidase subunit p22phox in THP-1 cells incubated with Chlamydia; conditions: FIG. 16; 10^−4 to 10^−6 M
# Procedure: FIG. 16 represents the genetic expression of one of the subunits of NADPH-oxidase, the p22^phox, and the effects of glucocorticoids, hydrocortisone (HCT) and methylprednisolone (MPL) (data are expressed as relative values by comparison with a reference gene).
# By the PCR (<<polymerase chain reaction>>) method, it was observed that the incubation of monocytes with C. pneumoniae increased the expression of the genes (FIG. 8, column 2 compared to column 1) coding for interleukines 1β (IL-1β) (FIG. 8, part 1), 6 (IL-6) (FIG. 8, part 2) and 8 (IL-8) (FIG. 8, part 3), coding for inducible cyclo-oxygenase (COX-2) (FIG. 8, part 4) and coding for one of the subunits of NADPH-oxidase, the p22 protein (p22^phox) (FIG. 8, part 5) (results are presented as relative values by comparison with a reference gene).
# [2] = tested on: THP-1 cells conditioned with Chlamydia pneumoniae; assay: Oxidant activity (ethylene production from KMB, gas liquid chromatography) of THP-1 cells conditioned with Chlamydia pneumoniae, then stimulated by PMA; conditions: for Ethylene: % of THP-1 + Chlamydia
# Procedure: This model has been described in details in Mouithys Mickalad et al. (Biochem Biophys Res Comm 2001, 287: 781-788). Treatment of the Cells with Chlamydia pneumoniae:
# The monocytes (in multiwell plates, 2×10^6 cells/well) are conditioned by a pre-incubation of 19 hours with elementary bodies of Chlamydia pneumoniae (at a dose equivalent to a mean endotoxin concentration of 3.3 pg). The elementary bodies are obtained by Chlamydia culture in MacCoy cells (American Type Culture Collection, Rockville, USA).
# as §1, §2
# [3] = tested on: nuclear transcription factor kappaB (NF-κB); assay: Activation of NF-κB (binding to DNA) by electrophoretic mobility shift assay in THP-1 cells pre-incubated with Chlamydia; conditions: for NF-κB relative value (%): THP-1 + Chlamydia, % of THP-1 without preincubation with C pneumoniae (FIG. 7)
# Procedure: FIG. 7 represents the effects of pre-incubation with Chlamydia on the activity of the nuclear transcription factor kappaB (NF-kB) (column 2). NF-kB is expressed in % of column 1 (THP-1 cells without preincubation with C pneumoniae)
# The activation of NF-κB was measured by the technique of <<electrophoretic mobility shift assay>> (EMSA) (Schoonbroodt et al., 2000, J Immunol. 164: 4292-4300; Nys et al., 2003, Nitric Oxide 9: 33-43) (FIG. 7). The activation of NF-κB is expressed in % of control cells (cells which have not been pre-incubated with Chlamydia) (column 1). The incubation of monocytes with C. pneumoniae activates the NF-κB binding to DNA (FIG. 7, column 2).
# THP-1 cell line = assay: Model of foam cell formation from THP-1 monocytes (Chlamydia pneumoniae, then LDL or liposomes, Oil Red O); conditions: LDL
# Procedure: A model of foam cell formation from monocytes (THP-1 cell line) was developed. The cells are incubated for 19 hours with Chlamydia pneumoniae. This incubation is followed by the addition of human LDL or liposomes, and another incubation period of 48 hours. At the end of this second period of incubation, the cells are fixed and stained with oil Red O (Sigma, Belgium) (Smirnova et al., 2004, Am J Physiol Heart Circ Physiol. March 11 (Epub ahead of print) to highlight the foam cells. When drugs are used in this model, they are added at the same time as the LDL or liposomes. LDL are prepared from human blood drawn on EDTA. They are isolated by sequential flotation centrifugation with increased concentrations of KBr. After their isolation, LDL are dialysed, sterilised by filtration and their purity is confirmed by electrophoresis. Liposomes are lipid vesicles prepared by extrusion with cholesterol esters and phospholipids, mimicking lipoproteins.
# TNFα = TNFα production (ELISA, culture supernatant) by THP-1 cells pre-incubated with Chlamydia pneumoniae; conditions: 10^−9 M to 10^−5 M; THP-1 pre-incubated (19h) with Chlamydia
# Procedure: (§3) By using this model, one may verify that the monocyte incubation with C. pneumoniae during 19 hours, enhances the production of TNFα(FIG. 6, part 1) and IL-8 ([…]), as measured by immunological methods (ELISA type) in the culture supernatant.
# IL-8 = IL-8 production (ELISA, culture supernatant) by THP-1 cells pre-incubated with Chlamydia pneumoniae; conditions: 10^−9 M to 10^−5 M; THP-1 pre-incubated (19h) with Chlamydia
# Procedure: as §3
structure (smiles),measurement,setting,value
"C[C@]12CCC(=O)C=C1CC[C@@H]1[C@@H]2[C@@H](O)C[C@@]2(C)[C@H]1CC[C@]2(O)C(=O)CO [HCT, hydrocortisone]",Ethylene,[1]; 10^−4 M,19%
same,Ethylene,[1]; 10^−5 M,50%
same,Ethylene,[1]; 10^−6 M,57%
same,effect on oxidation rate,"[1]; cells conditioned with endotoxins (LPS) of Escherichia coli, 10^−4 to 10^−6 M",inhibitor
same,effect on gene expression of p22^phox,p22^phox,inhibitors
same,Ethylene,"[2]; FIG. 9 part 1, 10^−4 M, PMA 10^−7 M",108%
same,Ethylene,"[2]; FIG. 9 part 1, 10^−5 M, PMA 10^−7 M",119%
same,Ethylene,"[2]; FIG. 9 part 1, 10^−6 M, PMA 10^−7 M",139%
same,Ethylene,"[2]; FIG. 19, drug alone 10^−4 M, pre-incubation with Chlamydia",84.0%
same,Ethylene,"[2]; FIG. 19, drug alone 10^−5 M, pre-incubation with Chlamydia",116.0%
same,Ethylene,"[2]; FIG. 20, drug alone 10^−4 M, pre-incubation with Chlamydia",98.0%
same,Ethylene,"[2]; FIG. 20, drug alone 10^−5 M, pre-incubation with Chlamydia",85.0%
same,Ethylene,"[2]; FIG. 21, drug alone 10^−4 M, pre-incubation with Chlamydia",104.0%
same,Ethylene,"[2]; FIG. 21, drug alone 10^−5 M, pre-incubation with Chlamydia",72.0%
same,Ethylene,"[2]; FIG. 22, drug alone 10^−4 M, pre-incubation with Chlamydia",118.0%
same,Ethylene,"[2]; FIG. 22, drug alone 10^−5 M, pre-incubation with Chlamydia",68.1%
same,effect on oxidant activity / oxidation rate,"[2]; drug added at cell conditioning with Chlamydia (pre-incubation 19 hours), then PMA 10^−7 M","either does not modify the oxidant capacity, or even increases the oxidation rate"
same,NF-κB relative value (%),[3]; 10^−5 M,396%
same,NF-κB relative value (%),[3]; 10^−6 M,480%
same,effect on the activation of NF-κB,[3]; at 10^−5 and 10^−6 M,without significant effect
same,activity of NF-κB,[3]; at 10^−6 M,slightly stimulated
same,effect on transformation into foam cells,THP-1 cell line; 10^−5 M,favouring effect
same,effect on transformation into foam cells,THP-1 cell line; at 10^−5 and 10^−6 M,does not inhibit the transformation into foam cells
same,effect on production of TNFα,TNFα,dose-dependent inhibiting effect
same,effect on production of IL-8,IL-8,dose-dependent inhibiting effect
